How the values were obtained:
[1] = test system: ZR-75-1 H3K23 Acetylation; assay: Histone H3 acetylation assay (H3K23 acetylation in ZR-75-1 cells); format: cell-based; conditions: Homo sapiens, 72 hours incubation, Odyssey CLx fluorescence, read-out: ZR-75-1 H3K23 Acetylation Inhibition IC50
Experimental: III. Histone H3 acetylation assay
• 1. ZR-75-1 cells were seeded at 5000 cells/40 µL per well in 384-well plates and cultured overnight in an incubator at 37°C & 5% CO2. • 2. 40 nL of serially diluted compounds were added to the 384-well plates, followed by further incubation for 72 hours. • 3. The supernatant was discarded, and 8 w/v% paraformaldehyde (final concentration was 4 w/v%) was added directly to the wells to fix the cells at room temperature. • 4. After washing twice with PBS, a permeabilization agent (40 µL of methanol) was added and incubated for 10 minutes to permeabilize the cell membranes. • 5. After washing twice with PBS, a blocking buffer was added and incubated at room temperature for 1 hour for blocking. • 6. The blocking buffer was discarded, and 20 µL of primary antibodies (recombinant Anti-Histone H3 (acetyl K23) antibody and Anti-Histone H4 antibody) diluted in blocking buffer (1:1000 by volume dilution) were added, followed by incubation at 4°C overnight. • 7. After washing three times with PBST (0.05 vol% Tween-20 in PBS), 20 µL of fluorescent secondary antibodies (IRDye 680RD Goat anti-MOUSE, Licor, 926-68070; IRDye 800CW Goat anti-Rabbit, Licor, 926-32211) diluted in blocking buffer (1:2000 by volume dilution) were added, followed by incubation at room temperature, protected from light, for 1 hour. Then, the plates were washed three times with PBST. • 8. Scanning was performed using an Odyssey CLx, and the fluorescence signal value for each well was quantified. IC50 values were calculated by nonlinear regression using a four-parameter logistic equation in GraphPad Prism 8 software.

KAT6A = target: T1, KAT6A (Homo sapiens, UniProt Q92794); assay: KATs acetyltransferase enzyme activity assay (TR-FRET), KAT6A; format: biochemical; conditions: Biotin-H3 (1-21) and AcCOA, 90 minutes at room temperature
T1 construct: purchased Active Motif 81223
T1 sequence (Q92794 488-778 limits assumed): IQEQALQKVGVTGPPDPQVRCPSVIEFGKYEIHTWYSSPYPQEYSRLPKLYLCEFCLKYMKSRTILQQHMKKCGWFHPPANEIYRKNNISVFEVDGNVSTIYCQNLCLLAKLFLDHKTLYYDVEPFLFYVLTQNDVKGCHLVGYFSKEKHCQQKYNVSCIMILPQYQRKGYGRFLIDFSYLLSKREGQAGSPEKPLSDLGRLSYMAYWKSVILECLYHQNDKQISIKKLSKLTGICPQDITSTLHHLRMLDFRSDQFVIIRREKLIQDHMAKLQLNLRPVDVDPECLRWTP
Experimental: (§1) I. KATs acetyltransferase enzyme activity assay
• 1. The inhibitory effect of compounds on the acetyltransferase activity of KATs was evaluated using the Time-Resolved Fluorescence Resonance Energy Transfer (TR-FRET) assay. The assay was conducted in 384-well plates using Tris-HCl buffer. • 2. Compounds were diluted in DMSO and transferred to 384-well plates. […] Subsequently, 2.5 µL of a mixture containing KAT6A/KAT6B: Biotin-H3 (1-21, Genscript, C6829GL060) or KAT5/7/8: Bio-H4 (1-25, Genscript, C736BGL100) AcCOA (Sigma, A2056) was added, and the reaction proceeded at room temperature for 90 minutes. • 4. After the reaction, a detection mixture containing Europium-anti-acetyl-Histone H4 Lysine (H4Kac pan) Antibody (Perkin Elmer, TRF0412) and LANCE Ultra ULight™-Streptavidin in LANCE™ Detection buffer (10x) (Perkin Elmer, CR97-100) was added, followed by incubation at room temperature for 60 minutes. • 5. […] IC50 values were calculated by nonlinear regression using a four-parameter logistic equation in GraphPad Prism 8 software.

KAT6B = target: T2, KAT6B (Homo sapiens, UniProt Q8WYB5); assay: KATs acetyltransferase enzyme activity assay (TR-FRET), KAT6B; format: biochemical; conditions: Biotin-H3 (1-21) and AcCOA, 90 minutes at room temperature
T2 construct: purchased Active Motif 81224
T2 sequence (Q8WYB5 whole entry): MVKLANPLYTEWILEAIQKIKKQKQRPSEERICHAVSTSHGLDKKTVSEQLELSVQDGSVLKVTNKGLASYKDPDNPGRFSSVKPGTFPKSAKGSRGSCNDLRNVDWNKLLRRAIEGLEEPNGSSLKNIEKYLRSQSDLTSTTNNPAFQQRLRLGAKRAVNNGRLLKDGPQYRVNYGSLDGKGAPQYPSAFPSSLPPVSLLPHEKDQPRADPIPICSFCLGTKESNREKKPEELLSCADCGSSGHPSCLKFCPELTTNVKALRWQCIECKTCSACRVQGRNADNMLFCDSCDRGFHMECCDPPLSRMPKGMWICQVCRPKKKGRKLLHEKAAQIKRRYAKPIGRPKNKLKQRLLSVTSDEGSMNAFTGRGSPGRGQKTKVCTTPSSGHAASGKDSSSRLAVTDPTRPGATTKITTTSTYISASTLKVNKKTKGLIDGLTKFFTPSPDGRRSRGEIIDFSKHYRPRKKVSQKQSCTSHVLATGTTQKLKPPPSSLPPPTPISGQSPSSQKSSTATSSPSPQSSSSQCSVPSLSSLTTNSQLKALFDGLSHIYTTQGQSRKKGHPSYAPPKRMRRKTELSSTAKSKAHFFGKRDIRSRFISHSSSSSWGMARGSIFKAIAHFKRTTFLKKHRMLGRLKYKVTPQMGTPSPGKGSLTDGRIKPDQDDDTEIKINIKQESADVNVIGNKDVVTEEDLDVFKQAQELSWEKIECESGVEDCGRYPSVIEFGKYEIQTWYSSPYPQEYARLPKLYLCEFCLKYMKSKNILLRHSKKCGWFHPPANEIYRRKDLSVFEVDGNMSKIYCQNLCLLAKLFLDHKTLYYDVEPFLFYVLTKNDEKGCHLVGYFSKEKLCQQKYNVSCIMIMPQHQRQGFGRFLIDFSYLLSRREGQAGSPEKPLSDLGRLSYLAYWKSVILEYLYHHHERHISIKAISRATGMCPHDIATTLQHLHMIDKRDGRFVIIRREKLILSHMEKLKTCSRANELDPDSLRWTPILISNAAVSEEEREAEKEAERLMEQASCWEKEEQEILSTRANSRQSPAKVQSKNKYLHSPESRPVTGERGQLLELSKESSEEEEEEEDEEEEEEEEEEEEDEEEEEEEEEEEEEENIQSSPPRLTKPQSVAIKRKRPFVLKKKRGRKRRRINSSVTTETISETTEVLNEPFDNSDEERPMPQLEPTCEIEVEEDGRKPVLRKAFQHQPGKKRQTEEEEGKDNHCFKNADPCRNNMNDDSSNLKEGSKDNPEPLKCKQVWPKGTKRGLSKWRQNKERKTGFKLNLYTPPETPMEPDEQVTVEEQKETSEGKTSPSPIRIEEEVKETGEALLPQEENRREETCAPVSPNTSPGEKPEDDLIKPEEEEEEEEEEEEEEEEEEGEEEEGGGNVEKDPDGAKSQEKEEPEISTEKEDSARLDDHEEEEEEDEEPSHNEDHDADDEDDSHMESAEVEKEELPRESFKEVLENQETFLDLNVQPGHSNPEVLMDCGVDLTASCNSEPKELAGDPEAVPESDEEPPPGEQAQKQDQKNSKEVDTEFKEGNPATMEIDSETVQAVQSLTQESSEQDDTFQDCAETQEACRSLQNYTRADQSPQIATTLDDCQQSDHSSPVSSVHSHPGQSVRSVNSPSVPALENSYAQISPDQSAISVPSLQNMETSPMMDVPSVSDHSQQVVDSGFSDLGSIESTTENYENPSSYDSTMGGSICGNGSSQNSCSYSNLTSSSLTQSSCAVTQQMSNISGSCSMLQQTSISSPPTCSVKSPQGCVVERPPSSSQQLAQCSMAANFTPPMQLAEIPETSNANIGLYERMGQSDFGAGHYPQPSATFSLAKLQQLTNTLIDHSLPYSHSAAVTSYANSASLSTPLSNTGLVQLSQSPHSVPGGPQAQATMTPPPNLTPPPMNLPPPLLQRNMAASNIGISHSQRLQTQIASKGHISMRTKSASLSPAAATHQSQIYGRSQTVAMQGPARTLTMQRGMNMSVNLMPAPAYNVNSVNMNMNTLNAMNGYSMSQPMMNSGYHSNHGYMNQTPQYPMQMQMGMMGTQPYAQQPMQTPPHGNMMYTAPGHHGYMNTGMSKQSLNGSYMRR
Experimental: as §1
• 1. The inhibitory effect of compounds on the acetyltransferase activity of KATs was evaluated using the Time-Resolved Fluorescence Resonance Energy Transfer (TR-FRET) assay. The assay was conducted in 384-well plates using Tris-HCl buffer. • 2. Compounds were diluted in DMSO and transferred to 384-well plates. Enzyme solutions (KAT6: active motif (kit), 81223; KAT6B: active motif, 81224; KAT5: SignalChem, K314-380G; KAT7: ICE, S2210F-H21HF; KAT8: Active motif, 81225) were added and the mixture was incubated at room temperature for 15 minutes. • 3. Subsequently, 2.5 µL of a mixture containing KAT6A/KAT6B: Biotin-H3 (1-21, Genscript, C6829GL060) or KAT5/7/8: Bio-H4 (1-25, Genscript, C736BGL100) AcCOA (Sigma, A2056) was added, and the reaction proceeded at room temperature for 90 minutes. • 4. After the reaction, a detection mixture containing Europium-anti-acetyl-Histone H4 Lysine (H4Kac pan) Antibody (Perkin Elmer, TRF0412) and LANCE Ultra ULight™-Streptavidin in LANCE™ Detection buffer (10x) (Perkin Elmer, CR97-100) was added, followed by incubation at room temperature for 60 minutes. • 5. HTRF signals were measured using a BMG PHERAstar FSX (Ratio: 665nm/620nm). IC50 values were calculated by nonlinear regression using a four-parameter logistic equation in GraphPad Prism 8 software.

ZR-75-1 cells = assay: ZR-75-1 cell proliferation assay (CellTiter-Glo); format: cell-based; conditions: Homo sapiens, ZR-75-1, 240 h, total culture period of 10 days, read-out: ZR-75-1 Proliferation Inhibition IC50
Experimental: II. ZR-75-1 cell proliferation assay
• 1. ZR-75-1 cells were seeded in 96-well plates and cultured overnight in an incubator at 37°C & 5% CO2. • 2. Compounds were diluted using culture medium and added to the 96-well plates. The plates were placed back into the incubator for continued culture. Every 5 days, the cells were trypsinized, counted, and re-seeded. After the cells had fully adhered, compounds were added again for incubation, for a total culture period of 10 days. • 3. After the culture period, 60 µL of CellTiter-Glo reagent (Promega, G7573) was added to each well. The plates were protected from light and shaken for 2 minutes to lyse the cells, followed by further incubation at room temperature, protected from light, for 30 minutes. • 4. Luminescence signals were read using a BMG PHERAstar FSX. IC50 values were calculated by nonlinear regression using a four-parameter logistic equation in GraphPad Prism 8 software.

Row | SMILES | IC50 [1] | IC50 (KAT6A) | IC50 (KAT6B) | IC50 (ZR-75-1 cells)
1 | COc1ccc2c(c1S(=O)(=O)Nc1noc3cc(Cn4cccn4)c(F)c(OC)c13)OCC1CC21 (single isomer, unassigned) [Compound 30-P1] | 0.3 nM | 1.4 nM | 1.4 nM | 0.08 nM
2 | COc1cc2c(NS(=O)(=O)c3c(OC)ccc4c3OCC3CC43)noc2cc1Cn1cccn1 (single isomer, unassigned) [Compound 33] | 0.2 nM | 1.1 nM | 1.2 nM | 0.03 nM
3 | COc1ccc2c(c1S(=O)(=O)Nc1noc3cc(Cn4cccn4)c(F)cc13)OCC1CC21 (single isomer, unassigned) [Compound 34] | 0.4 nM | 1.2 nM | 2.2 nM | 0.04 nM
4 | COc1cc(Cn2cccn2)cc2onc(NS(=O)(=O)c3cccc4c3OCCCO4)c12 [Compound 1, N-(6-((1H-Pyrazol-1-yl)methyl)-4-methoxybenzo[d]isoxazol-3-yl)-3,4-dihydro-2H-benz o[b] [1,4]dioxepine-6-sulfonamide] | 9 nM | 12.9 nM | 81.7 nM | 6.7 nM
5 | COc1ccc2c(c1S(=O)(=O)Nc1noc3cc(Cn4cccn4)cc(OC)c13)OCC1CC21 (stereo not shown) [Compound 5, N-(6-((1H-Pyrazol-1-yl)methyl)-4-methoxybenzo[d]isoxazol-3-yl)-5-methoxy-1,1a,2,7b-tetrahydrocyclopropa[c]chromene-4-sulfonamide] | 0.5 nM | 1.5 nM | 3.7 nM | 0.2 nM
6 | COc1ccc2c(c1S(=O)(=O)Nc1noc3cc(Cn4cccn4)cc(OC)c13)OC[C@H]1C[C@@H]21 [Compound 5-P1, (1aS,7bR)-N-(6-((1H-Pyrazol-1-yl)methyl)-4-methoxybenzo[d]isoxazol-3-yl)-5-methoxy-1,1a,2,7b-tetrahydrocyclopropa[c]chromene-4-sulfonamide] | 1.9 nM | 2.5 nM | 11.1 nM | 0.3 nM
7 | COc1cc2c(cc1S(=O)(=O)Nc1noc3cc(Cn4cccn4)cc(OC)c13)C1CC1CO2 (stereo not shown) [Compound 6, N-(6-((1H-Pyrazol-1-yl)methyl)-4-methoxybenzo[d]isoxazol-3-yl)-5-methoxy-1,1a,2,7b-tetrahydrocyclopropa[c] chromene-6-sulfonamide] | 5.3 nM | 1.3 nM | 11.8 nM | 0.6 nM
8 | COc1cc2c(cc1S(=O)(=O)Nc1noc3cc(Cn4cccn4)cc(OC)c13)OCCCO2 [Compound 7, N-(6-((1H-Pyrazol-1-yl)methyl)-4-methoxybenzo[d]isoxazol-3-yl)-8-methoxy-3,4-dihyd ro-2H-benzo[b][1,4]dioxepine-7-sulfonamide] | 8.6 nM | 2.7 nM | 19.2 nM | 2.4 nM
9 | COc1cc2c(cc1S(=O)(=O)Nc1noc3cc(Cn4cccn4)cc(OC)c13)OCCOC2 [Compound 8] | 10.3 nM | 2.7 nM | 40.8 nM | 4.2 nM
10 | COc1ccc2c(c1S(=O)(=O)Nc1noc3cc(Cn4cccn4)cc(OC)c13)OCCOC2 [Compound 10, N-(6-((1H-Pyrazol-1-yl)methyl)-4-methoxybenzo[d]isoxazol-3-yl)-8-methoxy-2,3-dihyd ro-5H-benzo [e] [1,4] dioxepine-9-sulfonamide] | 2.3 nM | 2.2 nM | 19.9 nM | 1.4 nM
11 | COc1ccc2c(c1S(=O)(=O)Nc1noc3cc(Cn4cccn4)c(F)cc13)OCCCO2 [Compound 12, N-(6-((1H-Pyrazol-1-yl)methyl)-5-fluorobenzo[d]isoxazol-3-yl)-7-methoxy-3,4-dihydro-2H-benzo [b] [1,4] dioxepine-6-sulfonamide] | 4.5 nM | 6.5 nM | 40 nM | 1.4 nM
12 | COc1ccc2c(c1S(=O)(=O)Nc1noc3cc(Cn4cccn4)c(OC(F)F)cc13)OCCCO2 [Compound 13, N-(6-((1H-pyrazol-1-yl)methyl)-5-(difluoromethoxy)benzo[d]isoxazol-3-yl)-7-methoxy-3,4-dihydro-2H-benzo [b] [1,4] dioxepine-6-sulfonamide] | 34.3 nM | – | – | 14.2 nM
13 | COc1ccc2c(c1S(=O)(=O)Nc1noc3cc(Cn4cccn4)c(C4CC4)cc13)OCCCO2 [Compound 14, N-(6-((1H-Pyrazol-1-yl)methyl)-5-cyclopropylbenzo[d]isoxazol-3-yl)-7-methoxy-3,4-di hydro-2H-benzo[b][1,4]dioxepine-6-sulfonamide] | 11.5 nM | 1.4 nM | 12.7 nM | 8.6 nM
14 | COc1cc2c(NS(=O)(=O)c3c(OC)ccc4c3OCCCO4)noc2cc1Cn1cccn1 [Compound 15, N-(6-((1H-Pyrazol-1-yl)methyl)-5-methoxybenzo[d]isoxazol-3-yl)-7-methoxy-3,4-dihyd ro-2H-benzo[b][1,4] dioxepine-6-sulfonamide] | 1.1 nM | 1.7 nM | 9.3 nM | 0.6 nM
15 | CCc1c(Cn2cccn2)cc2onc(NS(=O)(=O)c3c(OC)ccc4c3OCC3CC43)c2c1OC (stereo not shown) [Compound 27, N-(6-((1H-Pyrazol-1-yl)methyl)-5-ethyl-4-methoxybenzo[d]isoxazol-3-yl)-5-methoxy-1,1a,2,7b-tetrahydrocyclopropa[c]chromene-4-sulfonamide] | 27.1 nM | 1.3 nM | 8.9 nM | 11.5 nM
16 | COc1ccc2c(c1S(=O)(=O)Nc1noc3cc(Cn4cccn4)cc(OC)c13)OCC21COC1 [Compound 49, N-(6-((1H-Pyrazol-1-yl)methyl)-4-methoxybenzo[d]isoxazol-3-yl)-6-methoxy-2H-spiro[benzofuran-3,3'-oxetane]-7-sulfonamide] | 4.2 nM | 3 nM | 23.1 nM | –
17 | COc1ccc2c(c1S(=O)(=O)Nc1noc3cc(Cn4cccn4)cc(OC)c13)OC1CC1O2 (stereo not shown) [Compound 50, N-(6-((1H-Pyrazol-1-yl)methyl)-4-methoxybenzo[d]isoxazol-3-yl)-4-methoxy-1a,7a-dihydro-1H-benzo[b]cyclopropa[e][1,4]dioxine-3-sulfonamide] | 6.5 nM | 6.8 nM | 51.6 nM | –
